Results on six compounds are retold here after patent US12723063B2, “GIPR-agonist compounds” (Eli Lilly and Company, priority 2019, dated 2026).

Broadly, the Ki is a dissociation constant, usually derived from enzyme kinetics or from competition with a known ligand.

*1 amine or outer side, *2 acyl side, *3 side chain or, on linkers, in order; H or OH if unused. Where a SMILES comes first, the peptide text is derived from it. Side-chain parts run from the residue outwards. [ ]: non-standard residue; d: D form. The star is where a group is joined. C20 diacid = O=C(O)CCCCCCCCCCCCCCCCCCC(=O)*; C18 diacid = O=C(O)CCCCCCCCCCCCCCCCC(=O)*; αMePhe(2-F) = C[C@](N)(Cc1ccccc1F)C(=O)O; γGlu = O=C(O)[C@H](CCC(=O)[*:2])N[*:1]; αMeL = CC(C)C[C@](C)(N)C(=O)O; AEEA = NCCOCCOCC(=O)O; Aib = CC(C)(N)C(=O)O

In one experiment the target is T1, human GIPR (Homo sapiens, UniProt P48546).
T1 construct: expressed in transfected cells; crude membranes
T1 sequence (P48546 22-466): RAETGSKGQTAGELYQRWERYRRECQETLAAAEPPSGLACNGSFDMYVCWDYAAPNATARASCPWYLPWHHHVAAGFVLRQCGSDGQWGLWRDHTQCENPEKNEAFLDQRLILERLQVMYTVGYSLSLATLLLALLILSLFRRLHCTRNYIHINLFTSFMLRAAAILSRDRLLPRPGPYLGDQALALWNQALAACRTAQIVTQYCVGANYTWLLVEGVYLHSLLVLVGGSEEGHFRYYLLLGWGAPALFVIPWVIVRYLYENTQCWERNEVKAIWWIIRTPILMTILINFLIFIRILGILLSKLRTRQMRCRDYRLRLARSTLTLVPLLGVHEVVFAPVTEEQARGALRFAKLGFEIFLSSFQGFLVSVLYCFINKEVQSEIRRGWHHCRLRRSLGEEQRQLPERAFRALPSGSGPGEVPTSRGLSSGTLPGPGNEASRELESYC
Nature of the experiment: [125I]-GIP binding, SPA with WGA beads, 0.1% bacitracin. Conditions: geometric mean, read-out: hGIPR Ki. The procedure, abridged: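 Ki values are geometric means (SEM, n independent days), derived from four-parameter nonlinear regression of IC50. Membranes came from hGIPR-expressing CHO cells.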

The next experiment concerns the target T2, human GLP-1R (Homo sapiens, UniProt P43220).
T2 construct: expressed in transfected cells; crude membranes
Kind of experiment: [125I]-GLP-1 binding, SPA with WGA beads, 0.1% bacitracin. Conditions: geometric mean, read-out: hGLP1R Ki. The procedure, abridged: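 Binding buffer was 25 mM HEPES pH 7.4 with 2.5 mM CaCl2, 1 mM MgCl2, 0.1% (w/v) bacitracin, 0.003% Tween-20 and EDTA-free protease inhibitors. Four-parameter regression gave IC50, converted to Ki (geometric mean, SEM, n independent days).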

In another experiment the target is T3, human GcgR (Homo sapiens, UniProt P47871).
T3 construct: expressed in transfected cells; crude membranes
Nature of the experiment: [125I]-Glucagon binding, SPA with WGA beads, 0.1% bacitracin. The following applies: geometric mean, read-out: hGcgR Ki. The method, boiled down:
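SPA competition binding with WGA beads on crude membranes from HEK293 cells stably expressing hGcgR. Buffer: 25 mM HEPES pH 7.4, 2.5 mM CaCl2, 1 mM MgCl2, 0.1% bacitracin, 0.003% Tween-20; 10-point 3-fold dilutions, NSB with 1 μM Gcg.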

T2 sequence (P43220 24-463): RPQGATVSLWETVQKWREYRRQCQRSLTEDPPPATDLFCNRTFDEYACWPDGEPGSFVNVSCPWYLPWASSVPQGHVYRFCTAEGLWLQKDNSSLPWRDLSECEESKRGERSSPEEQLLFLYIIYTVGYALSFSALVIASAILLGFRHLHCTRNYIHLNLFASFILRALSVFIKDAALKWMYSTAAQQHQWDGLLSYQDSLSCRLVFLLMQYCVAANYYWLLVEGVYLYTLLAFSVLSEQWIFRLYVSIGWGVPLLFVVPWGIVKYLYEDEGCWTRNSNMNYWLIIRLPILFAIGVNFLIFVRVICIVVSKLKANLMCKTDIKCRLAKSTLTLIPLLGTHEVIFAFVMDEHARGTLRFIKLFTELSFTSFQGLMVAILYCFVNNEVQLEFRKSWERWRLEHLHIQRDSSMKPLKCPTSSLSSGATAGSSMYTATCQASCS
T3 sequence (P47871 26-477): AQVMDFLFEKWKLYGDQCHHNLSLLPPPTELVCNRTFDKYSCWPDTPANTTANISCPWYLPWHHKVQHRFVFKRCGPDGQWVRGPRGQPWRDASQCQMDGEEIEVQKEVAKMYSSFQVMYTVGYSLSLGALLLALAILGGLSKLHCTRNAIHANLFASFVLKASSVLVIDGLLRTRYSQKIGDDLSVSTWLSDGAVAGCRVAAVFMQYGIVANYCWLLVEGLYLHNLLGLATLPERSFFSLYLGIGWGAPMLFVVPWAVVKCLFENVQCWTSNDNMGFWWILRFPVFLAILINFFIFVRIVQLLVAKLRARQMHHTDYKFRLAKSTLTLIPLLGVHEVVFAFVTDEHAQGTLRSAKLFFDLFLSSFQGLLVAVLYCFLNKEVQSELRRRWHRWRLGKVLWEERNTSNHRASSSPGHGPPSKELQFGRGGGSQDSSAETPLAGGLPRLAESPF

`CC[C@H](C)[C@H](NC(=O)[C@H](CO)NC(=O)[C@H](Cc1ccc(O)cc1)NC(=O)[C@H](CC(=O)O)NC(=O)[C@H](CO)NC(=O)[C@@H](NC(=O)[C@H](CC(C)C)NC(=O)[C@@H](NC(=O)CNC(=O)[C@H](CCC(=O)O)NC(=O)[C@@H](C)NC(=O)[C@@H](N)Cc1ccc(O)cc1)[C@@H](C)O)[C@@H](C)CC)C(=O)N[C@@H](CC(C)C)C(=O)N[C@@H](CC(C)C)C(=O)N[C@@H](CC(=O)O)C(=O)N[C@@H](CCCCN)C(=O)N[C@@H](CCCCNC(=O)COCCOCCNC(=O)COCCOCCNC(=O)CC[C@H](NC(=O)CCCCCCCCCCCCCCCCC(=O)O)C(=O)O)C(=O)N[C@@H](C)C(=O)N[C@@H](CCC(N)=O)C(=O)NC(C)(C)C(=O)N[C@@H](CC(=O)O)C(=O)N[C@@H](Cc1ccccc1)C(=O)N[C@H](C(=O)N[C@@H](CC(N)=O)C(=O)N[C@@H](Cc1c[nH]c2ccccc12)C(=O)N[C@@H](CC(C)C)C(=O)N[C@@H](CC(C)C)C(=O)N[C@@H](C)C(=O)N[C@@H](CCC(N)=O)C(=O)NCC(=O)N1CCC[C@H]1C(=O)N[C@@H](CO)C(=O)N[C@@H](CO)C(=O)NCC(=O)N[C@@H](C)C(=O)N1CCC[C@H]1C(=O)N1CCC[C@H]1C(=O)N1CCC[C@H]1C(=O)N[C@@H](CO)C(N)=O)C(C)C` [Example 32] (H-Y[dA]EGTLISDYSILLDKK([AEEA-AEEA-γGlu-C18 diacid])AQ[Aib]DFVNWLLAQGPSSGAPPPS-NH2): the Ki was 0.0343 nM on human GIPR, 85.2 nM on human GLP-1R and above 959 nM on human GcgR.

`CC[C@H](C)[C@H](NC(=O)[C@H](CO)NC(=O)[C@H](Cc1ccc(O)cc1)NC(=O)[C@H](CC(=O)O)NC(=O)[C@H](CO)NC(=O)[C@@H](NC(=O)[C@](C)(Cc1ccccc1F)NC(=O)[C@@H](NC(=O)CNC(=O)[C@H](CCC(=O)O)NC(=O)[C@H](C)NC(=O)[C@@H](Cc1ccc(O)cc1)NC(C)=O)[C@@H](C)O)[C@@H](C)CC)C(=O)N[C@@H](C)C(=O)N[C@@H](CC(C)C)C(=O)N[C@@H](CC(=O)O)C(=O)N[C@@H](CCCCN)C(=O)N[C@@H](CCCCNC(=O)COCCOCCNC(=O)COCCOCCNC(=O)CC[C@H](NC(=O)CCCCCCCCCCCCCCCCCCC(=O)O)C(=O)O)C(=O)N[C@@H](Cc1c[nH]cn1)C(=O)N[C@@H](CCC(N)=O)C(=O)NC(C)(C)C(=O)N[C@@H](CCC(=O)O)C(=O)N[C@@H](Cc1ccccc1)C(=O)N[C@H](C(=O)N[C@@H](CC(N)=O)C(=O)N[C@@H](Cc1ccc(O)cc1)C(=O)N[C@@H](CC(C)C)C(=O)N[C@@H](CC(C)C)C(=O)N[C@@H](CCC(=O)O)C(=O)NCC(=O)NCC(=O)N1CCC[C@H]1C(=O)N[C@@H](CO)C(=O)N[C@@H](CO)C(=O)NCC(=O)N[C@@H](C)C(=O)N1CCC[C@H]1C(=O)N1CCC[C@H]1C(=O)N1CCC[C@H]1C(=O)N[C@@H](CO)C(N)=O)C(C)C` [Example 33] (Ac-[dY]AEGT[αMePhe(2-F)]ISDYSIALDKK([AEEA-AEEA-γGlu-C20 diacid])HQ[Aib]EFVNYLLEGGPSSGAPPPS-NH2): the Ki on human GIPR was 0.0369 nM; on human GLP-1R, 31.2 nM; at human GcgR, 63.5 nM.

Regarding `CC[C@H](C)[C@H](NC(=O)[C@H](CO)NC(=O)[C@H](Cc1ccc(O)cc1)NC(=O)[C@H](CC(=O)O)NC(=O)[C@H](CO)NC(=O)[C@@H](NC(=O)[C@](C)(Cc1ccccc1F)NC(=O)[C@@H](NC(=O)CNC(=O)[C@H](CCC(=O)O)NC(=O)C(C)(C)NC(=O)[C@@H](N)Cc1ccc(O)cc1)[C@@H](C)O)[C@@H](C)CC)C(=O)N[C@@H](C)C(=O)N[C@@H](CC(C)C)C(=O)N[C@@H](CC(=O)O)C(=O)N[C@@H](CCCCN)C(=O)N[C@@H](CCCCNC(=O)COCCOCCNC(=O)COCCOCCNC(=O)CC[C@H](NC(=O)CCCCCCCCCCCCCCCCCCC(=O)O)C(=O)O)C(=O)N[C@@H](Cc1c[nH]cn1)C(=O)N[C@@H](CCC(N)=O)C(=O)NC(C)(C)C(=O)N[C@@H](CCC(=O)O)C(=O)N[C@@H](Cc1ccccc1)C(=O)N[C@H](C(=O)N[C@@H](CC(N)=O)C(=O)N[C@@H](Cc1ccc(O)cc1)C(=O)N[C@@H](CC(C)C)C(=O)N[C@@H](CC(C)C)C(=O)N[C@@H](C)C(=O)N[C@H](C(=O)NCC(=O)N1CCC[C@H]1C(=O)N[C@@H](CO)C(=O)N[C@@H](CO)C(=O)NCC(=O)N[C@@H](C)C(=O)N1CCC[C@H]1C(=O)N1CCC[C@H]1C(=O)N1CCC[C@H]1C(=O)N[C@@H](CO)C(N)=O)[C@@H](C)O)C(C)C` [Example 34] (H-Y[Aib]EGT[αMePhe(2-F)]ISDYSIALDKK([AEEA-AEEA-γGlu-C20 diacid])HQ[Aib]EFVNYLLATGPSSGAPPPS-NH2), the Ki is 0.034 nM at human GIPR, 201 nM on human GLP-1R and 143 nM on human GcgR.

Take `CC[C@H](C)[C@H](NC(=O)[C@H](CO)NC(=O)[C@H](Cc1ccc(O)cc1)NC(=O)[C@H](CC(=O)O)NC(=O)[C@H](CO)NC(=O)[C@@H](NC(=O)[C@](C)(CC(C)C)NC(=O)[C@@H](NC(=O)CNC(=O)[C@H](CCC(=O)O)NC(=O)C(C)(C)NC(=O)[C@@H](N)Cc1ccc(O)cc1)[C@@H](C)O)[C@@H](C)CC)C(=O)N[C@@H](C)C(=O)N[C@@H](CC(C)C)C(=O)N[C@@H](CC(=O)O)C(=O)N[C@@H](CCCCN)C(=O)N[C@@H](CCCCNC(=O)COCCOCCNC(=O)COCCOCCNC(=O)CC[C@H](NC(=O)CCCCCCCCCCCCCCCCCCC(=O)O)C(=O)O)C(=O)N[C@@H](Cc1c[nH]cn1)C(=O)N[C@@H](CCC(N)=O)C(=O)NC(C)(C)C(=O)N[C@@H](CCC(=O)O)C(=O)N[C@@H](Cc1ccccc1)C(=O)N[C@H](C(=O)N[C@@H](CC(N)=O)C(=O)N[C@@H](Cc1ccc(O)cc1)C(=O)N[C@@H](CC(C)C)C(=O)N[C@@H](CC(C)C)C(=O)N[C@@H](C)C(=O)N[C@H](C(=O)NCC(=O)N1CCC[C@H]1C(=O)N[C@@H](CO)C(=O)N[C@@H](CO)C(=O)NCC(=O)N[C@@H](C)C(=O)N1CCC[C@H]1C(=O)N1CCC[C@H]1C(=O)N1CCC[C@H]1C(=O)N[C@@H](CO)C(N)=O)[C@@H](C)O)C(C)C` [Example 35] (H-Y[Aib]EGT[αMeL]ISDYSIALDKK([AEEA-AEEA-γGlu-C20 diacid])HQ[Aib]EFVNYLLATGPSSGAPPPS-NH2): the Ki at human GIPR is 0.0351 nM; at human GLP-1R it was 177 nM; on human GcgR it was above 960 nM.

Regarding `CC[C@H](C)[C@H](NC(=O)[C@H](CO)NC(=O)[C@H](Cc1ccc(O)cc1)NC(=O)[C@H](CC(=O)O)NC(=O)[C@H](CO)NC(=O)[C@@H](NC(=O)[C@](C)(Cc1ccccc1F)NC(=O)[C@@H](NC(=O)CNC(=O)[C@H](CCC(=O)O)NC(=O)C(C)(C)NC(=O)[C@@H](N)Cc1ccc(O)cc1)[C@@H](C)O)[C@@H](C)CC)C(=O)N[C@@H](C)C(=O)N[C@@H](CC(C)C)C(=O)N[C@@H](CC(=O)O)C(=O)N[C@@H](CCCCN)C(=O)N[C@@H](CCCCNC(=O)COCCOCCNC(=O)COCCOCCNC(=O)CC[C@H](NC(=O)CCCCCCCCCCCCCCCCCCC(=O)O)C(=O)O)C(=O)N[C@@H](Cc1c[nH]cn1)C(=O)N[C@@H](CCC(N)=O)C(=O)NC(C)(C)C(=O)N[C@@H](CC(=O)O)C(=O)N[C@@H](Cc1ccccc1)C(=O)N[C@H](C(=O)N[C@@H](CCC(=O)O)C(=O)N[C@@H](Cc1ccc(O)cc1)C(=O)N[C@@H](CC(C)C)C(=O)N[C@@H](CC(C)C)C(=O)N[C@@H](CCC(=O)O)C(=O)N[C@H](C(=O)NCC(=O)N1CCC[C@H]1C(=O)N[C@@H](CO)C(=O)N[C@@H](CO)C(=O)NCC(=O)N[C@@H](C)C(=O)N1CCC[C@H]1C(=O)N1CCC[C@H]1C(=O)N1CCC[C@H]1C(=O)N[C@@H](CO)C(N)=O)[C@@H](C)O)C(C)C` [Example 36] (H-Y[Aib]EGT[αMePhe(2-F)]ISDYSIALDKK([AEEA-AEEA-γGlu-C20 diacid])HQ[Aib]DFVEYLLETGPSSGAPPPS-NH2), the Ki turned out to be 0.0683 nM at human GIPR, 393 nM on human GLP-1R and 201 nM at human GcgR.

In the case of `CC[C@H](C)[C@H](NC(=O)[C@H](CO)NC(=O)[C@H](Cc1ccc(O)cc1)NC(=O)[C@H](CC(=O)O)NC(=O)[C@H](CO)NC(=O)[C@@H](NC(=O)[C@](C)(Cc1ccccc1F)NC(=O)[C@@H](NC(=O)CNC(=O)[C@H](CCC(=O)O)NC(=O)C(C)(C)NC(=O)[C@@H](N)Cc1ccc(O)cc1)[C@@H](C)O)[C@@H](C)CC)C(=O)N[C@@H](C)C(=O)N[C@@H](CC(C)C)C(=O)N[C@@H](CC(=O)O)C(=O)N[C@@H](CCCCN)C(=O)N[C@@H](CCCCNC(=O)COCCOCCNC(=O)COCCOCCNC(=O)CC[C@H](NC(=O)CCCCCCCCCCCCCCCCCCC(=O)O)C(=O)O)C(=O)N[C@@H](Cc1c[nH]cn1)C(=O)N[C@@H](CCC(N)=O)C(=O)NC(C)(C)C(=O)N[C@@H](CC(=O)O)C(=O)N[C@@H](Cc1ccccc1)C(=O)N[C@H](C(=O)N[C@@H](CCC(=O)O)C(=O)N[C@@H](Cc1ccc(O)cc1)C(=O)N[C@@H](CC(C)C)C(=O)N[C@@H](CC(C)C)C(=O)N[C@@H](CCC(=O)O)C(=O)NCC(=O)NCC(=O)N1CCC[C@H]1C(=O)N[C@@H](CO)C(=O)N[C@@H](CO)C(=O)NCC(=O)N[C@@H](C)C(=O)N1CCC[C@H]1C(=O)N1CCC[C@H]1C(=O)N1CCC[C@H]1C(=O)N[C@@H](CO)C(N)=O)C(C)C` [Example 37] (H-Y[Aib]EGT[αMePhe(2-F)]ISDYSIALDKK([AEEA-AEEA-γGlu-C20 diacid])HQ[Aib]DFVEYLLEGGPSSGAPPPS-NH2), the figures for the Ki on human GIPR, at human GLP-1R and on human GcgR were 0.026 nM, 83.9 nM and 51.4 nM, respectively.
